In brackets after ≈: the same amount, converted by molar mass. Values belong to the compound of their own block, whether it stands above or below them.
Columns and labels:
[1] = physchem; details: aqueous buffer, pH 6.5
Description: Solubility of compound in aqueous buffer at pH 6.5 at 25 degreeC by reversed phase-HPLC analysis

[2] = Chemical stability of compound in acetate buffer at pH 4 at 37 degreeC assessed as half life measured for 24 hrs by reversed phase-HPLC analysis; assay type: physicochemical
[3] = Chemical stability of compound in phosphate buffer at pH 6.5 at 37 degreeC assessed as half life measured for 24 hrs by reversed phase-HPLC analysis; assay type: physicochemical
[4] = Chemical stability of compound in 0.1 M HCl at pH 1 at 37 degreeC assessed as half life measured for 24 hrs by reversed phase-HPLC analysis; assay type: physicochemical
[5] = physchem; details: aqueous buffer, pH 1
Description: Solubility of compound in aqueous buffer at pH 1 at 25 degreeC by reversed phase-HPLC analysis

[6] = physchem; details: aqueous buffer, pH 4
Description: Solubility of compound in aqueous buffer at pH 4 at 25 degreeC by reversed phase-HPLC analysis

[7] = Prodrug conversion in Pentagastrine-pretreated Sprague-Dawley rat assessed as Tmax of 6-(cyclopropanecarboxamido)-4-((2-methoxy-3-(2-methyl-2H-tetrazol-5-yl)phenyl)amino)-N-(methyl-d3)nicotinamide metabolite at 10 mg/kg, po measured for 24 hrs by UPLC-MS/MS analysis; assay type: ADME, organism-based; details: in vivo
[8] = Prodrug conversion in Famotidine-pretreated Sprague-Dawley rat assessed as AUC (total) of 6-(cyclopropanecarboxamido)-4-((2-methoxy-3-(2-methyl-2H-tetrazol-5-yl)phenyl)amino)-N-(methyl-d3)nicotinamide metabolite at 10 mg/kg, po measured for 24 hrs by UPLC-MS/MS analysis; assay type: ADME, organism-based; details: in vivo
[9] = Prodrug conversion in Famotidine-pretreated Sprague-Dawley rat assessed as Tmax of 6-(cyclopropanecarboxamido)-4-((2-methoxy-3-(2-methyl-2H-tetrazol-5-yl)phenyl)amino)-N-(methyl-d3)nicotinamide metabolite at 10 mg/kg, po measured for 24 hrs by UPLC-MS/MS analysis; assay type: ADME, organism-based; details: in vivo
[10] = Prodrug conversion in Pentagastrine-pretreated Sprague-Dawley rat assessed as AUC (total) of 6-(cyclopropanecarboxamido)-4-((2-methoxy-3-(2-methyl-2H-tetrazol-5-yl)phenyl)amino)-N-(methyl-d3)nicotinamide metabolite at 10 mg/kg, po measured for 24 hrs by UPLC-MS/MS analysis; assay type: ADME, organism-based; details: in vivo
[11] = Prodrug conversion in Pentagastrine-pretreated Sprague-Dawley rat assessed as Cmax of 6-(cyclopropanecarboxamido)-4-((2-methoxy-3-(2-methyl-2H-tetrazol-5-yl)phenyl)amino)-N-(methyl-d3)nicotinamide metabolite at 10 mg/kg, po measured for 24 hrs by UPLC-MS/MS analysis; assay type: ADME, organism-based; details: in vivo
[12] = Prodrug conversion in Famotidine-pretreated Sprague-Dawley rat assessed as Cmax of 6-(cyclopropanecarboxamido)-4-((2-methoxy-3-(2-methyl-2H-tetrazol-5-yl)phenyl)amino)-N-(methyl-d3)nicotinamide metabolite at 10 mg/kg, po measured for 24 hrs by UPLC-MS/MS analysis; assay type: ADME, organism-based; details: in vivo
[13] = AUC (total) in Sprague-Dawley rat at 10 mg/kg, po measured for 24 hrs by UPLC-MS/MS analysis; assay type: ADME, organism-based; details: in vivo
[14] = Solubility of compound at pH 3 by reversed-phase UPLC analysis; assay type: physicochemical; details: buffer
[15] = Protein binding in human plasma assessed as free fraction; assay type: ADME, cell-free
[16] = Tmax in Sprague-Dawley rat at 10 mg/kg, po measured for 24 hrs by UPLC-MS/MS analysis; assay type: ADME, organism-based; details: in vivo
[17] = Solubility of compound at pH 2 by reversed-phase UPLC analysis; assay type: physicochemical; details: buffer
[18] = Oral bioavailability in mouse; assay type: ADME, organism-based; details: in vivo
[19] = Protein binding in rat plasma assessed as free fraction; assay type: ADME, cell-free
[20] = Oral bioavailability in rat; assay type: ADME, organism-based; details: in vivo
[21] = Apparent permeability across apical to basal side in human Caco-2 cells; assay type: ADME, cell-based
[22] = Cmax in Pentagastrine-pretreated Sprague-Dawley rat at 10 mg/kg, po measured for 24 hrs by UPLC-MS/MS analysis; assay type: ADME, organism-based; details: in vivo
[23] = Solubility of compound at pH 1 by reversed-phase UPLC analysis; assay type: physicochemical; details: buffer
[24] = Solubility of compound at pH 5 by reversed-phase UPLC analysis; assay type: physicochemical; details: buffer
[25] = Lipophilicity, logP of compound by HPLC analysis; assay type: physicochemical
[26] = Oral bioavailability in Famotidine-pretreated Sprague-Dawley rat at 10 mg/kg measured for 24 hrs by UPLC-MS/MS analysis; assay type: ADME, organism-based; details: in vivo
[27] = Oral bioavailability in monkey; assay type: ADME, organism-based, Macaca mulatta; details: rhesus monkey, in vivo
[28] = Cmax in Sprague-Dawley rat at 10 mg/kg, po measured for 24 hrs by UPLC-MS/MS analysis; assay type: ADME, organism-based; details: in vivo
[29] = Solubility of compound at pH 4 by reversed-phase UPLC analysis; assay type: physicochemical; details: buffer
[30] = Cmax in Famotidine-pretreated Sprague-Dawley rat at 10 mg/kg, po measured for 24 hrs by UPLC-MS/MS analysis; assay type: ADME, organism-based; details: in vivo
[31] = Dissociation constant, pKa of compound; assay type: physicochemical
[32] = Solubility of compound in FaSSIF at pH 6.5 by reversed-phase UPLC analysis; assay type: physicochemical
[33] = AUC (total) in Pentagastrine-pretreated Sprague-Dawley rat at 10 mg/kg, po measured for 24 hrs by UPLC-MS/MS analysis; assay type: ADME, organism-based; details: in vivo
[34] = Tmax in Pentagastrine-pretreated Sprague-Dawley rat at 10 mg/kg, po measured for 24 hrs by UPLC-MS/MS analysis; assay type: ADME, organism-based; details: in vivo
[35] = Tmax in Famotidine-pretreated Sprague-Dawley rat at 10 mg/kg, po measured for 24 hrs by UPLC-MS/MS analysis; assay type: ADME, organism-based; details: in vivo
[36] = Efflux ratio of apparent permeability across basal to apical side over apical to basal side in human Caco-2 cells; assay type: ADME, cell-based
[37] = Solubility of compound in FeSSIF at pH 5 by reversed-phase UPLC analysis; assay type: physicochemical
[38] = Oral bioavailability in Sprague-Dawley rat at 10 mg/kg measured for 24 hrs by UPLC-MS/MS analysis; assay type: ADME, organism-based; details: in vivo
[39] = Inhibition of STAT5 phosphorylation in IFN-gamma-treated human whole blood; assay type: tissue-based
[40] = Oral bioavailability in mouse at 50 mg/kg administered as suspension; assay type: ADME, organism-based; details: in vivo
[41] = AUC (total) in Famotidine-pretreated Sprague-Dawley rat at 10 mg/kg, po measured for 24 hrs by UPLC-MS/MS analysis; assay type: ADME, organism-based; details: in vivo
[42] = Protein binding in monkey plasma assessed as free fraction; assay type: ADME, cell-free, Macaca mulatta; details: rhesus monkey
[43] = Oral bioavailability in Pentagastrine-pretreated Sprague-Dawley rat at 10 mg/kg measured for 24 hrs by UPLC-MS/MS analysis; assay type: ADME, organism-based; details: in vivo
[44] = Solubility of compound at pH 7.4 by reversed-phase UPLC analysis; assay type: physicochemical; details: buffer
[45] = Solubility of compound at pH 6.5 by reversed-phase UPLC analysis; assay type: physicochemical; details: buffer
[46] = Permeability of compound by PAMPA; assay type: ADME; details: read-out: permeability

SMILES: [2H]C([2H])([2H])NC(=O)c1cn(COC(=O)c2ccc(OP(=O)(O)O)c(OC)c2)/c(=N/C(=O)C2CC2)cc1Nc1cccc(-c2nnn(C)n2)c1OC
half-life [4]: > 500 h | solubility [5]: < 1 µg/mL | solubility [1]: 1000 µg/mL (≈ 1460 µM) | half-life [2]: 215 h | half-life [3]: 84 h | solubility [6]: 58 µg/mL (≈ 84.6 µM)

SMILES: CNCC(=O)OCc1cccnc1N(C)C(=O)OCn1cc(C(=O)NC)c(Nc2cccc(-c3nnn(C)n3)c2OC)c/c1=N\C(=O)C1CC1.Cl
half-life [4]: 334 h | solubility [5]: 650 µg/mL | half-life [2]: 72 h | half-life [3]: 5.7 h | solubility [6]: 580 µg/mL

SMILES: [2H]C([2H])([2H])NC(=O)c1cn(COC(=O)c2ccc(COP(=O)(O)O)cc2)/c(=N/C(=O)C2CC2)cc1Nc1cccc(-c2nnn(C)n2)c1OC
half-life [4]: 334 h | solubility [5]: 1 µg/mL (≈ 1.49 µM) | solubility [1]: 1 µg/mL (≈ 1.49 µM) | half-life [2]: 334 h | half-life [3]: 130 h

SMILES: [2H]C([2H])([2H])NC(=O)c1cn(COC(=O)CC(C)(C)c2c(C)cc(C)cc2OP(=O)(O)O)/c(=N/C(=O)C2CC2)cc1Nc1cccc(-c2nnn(C)n2)c1OC
half-life [4]: 64 h | solubility [5]: 22 µg/mL (≈ 29.7 µM) | half-life [2]: 274 h | half-life [3]: 7.7 h | solubility [6]: 44 µg/mL (≈ 59.5 µM)

SMILES: NCCCC[C@H](N)C(=O)O.[2H]C([2H])([2H])NC(=O)c1cn(COP(=O)(O)O)/c(=N/C(=O)C2CC2)cc1Nc1cccc(-c2nnn(C)n2)c1OC
solubility [5]: 4 µg/mL | solubility [1]: 308 µg/mL | solubility [6]: 9 µg/mL

SMILES: NC(CO)(CO)CO.[2H]C([2H])([2H])NC(=O)c1cn(COP(=O)(O)O)/c(=N/C(=O)C2CC2)cc1Nc1cccc(-c2nnn(C)n2)c1OC
solubility [5]: 1 µg/mL | solubility [1]: 141 µg/mL | solubility [6]: 2 µg/mL

More lines, now with the values ahead:

solubility [1]: 2500 µg/mL | half-life [2]: 0.7 h | half-life [3]: 71.8 h
SMILES: [2H]C([2H])([2H])N(COP(=O)([O-])[O-])C(=O)c1cnc(NC(=O)C2CC2)cc1Nc1cccc(-c2nnn(C)n2)c1OC.[Na+].[Na+]

Tmax [7]: 2.1 h | AUC [8]: 58 µM·h | half-life [4]: > 500 h | Tmax [9]: 2.5 h | solubility [5]: 10 µg/mL | solubility [1]: 1470 µg/mL | AUC [10]: 79 µM·h | half-life [2]: 376 h | half-life [3]: 177 h | Cmax [11]: 11.6 µM | solubility [6]: 1 µg/mL | Cmax [12]: 8.1 µM
SMILES: [2H]C([2H])([2H])NC(=O)c1cn(COP(=O)([O-])[O-])/c(=N/C(=O)C2CC2)cc1Nc1cccc(-c2nnn(C)n2)c1OC.[Na+].[Na+]

AUC at 24 h [13]: 18.4 µM·h | solubility [14]: 17 µg/mL (≈ 40 µM) | fraction unbound [15]: 0.1 | Tmax [16]: 1.1 h | solubility [17]: 1680 µg/mL (≈ 3950 µM) | solubility [5]: 2020 µg/mL (≈ 4750 µM) | bioavailability [18]: 100% | solubility [1]: 1 µg/mL (≈ 2.35 µM) | fraction unbound [19]: 0.07 | bioavailability [20]: 50% | Papp A→B [21]: 6.7 ×10⁻⁶ cm/s | Cmax [22]: 8.6 µM | solubility [23]: 2020 µg/mL (≈ 4750 µM) | solubility [24]: < 1 µg/mL | logP [25]: 2.7 | bioavailability [26]: 15.4% | bioavailability [27]: 100% | Cmax [28]: 4.8 µM | solubility [29]: 5 µg/mL (≈ 11.8 µM) | Cmax [30]: 0.77 µM | pKa [31]: 4.8 | solubility [32]: 8 µg/mL (≈ 18.8 µM) | AUC at 24 h [33]: 46 µM·h | Tmax [34]: 0.9 h | Tmax [35]: 2.5 h | efflux ratio [36]: 8.2 | solubility [6]: 5 µg/mL (≈ 11.8 µM) | solubility [37]: 57 µg/mL (≈ 134 µM) | bioavailability [38]: 36% | IC50 [39]: 23 nM | bioavailability [40]: 63% | AUC at 24 h [41]: 7.8 µM·h | fraction unbound [42]: 0.08 | bioavailability [43]: 91% | solubility [44]: < 1 µg/mL | solubility [45]: < 1 µg/mL | Papp [46]: ~60 ×10⁻⁶ cm/s
SMILES: [2H]C([2H])([2H])NC(=O)c1cnc(NC(=O)C2CC2)cc1Nc1cccc(-c2nnn(C)n2)c1OC

Cmax [22]: 7.1 µM | Cmax [30]: 0.8 µM | AUC at 24 h [33]: 53.4 µM·h | Tmax [34]: 5.5 h | Tmax [35]: 4 h | AUC at 24 h [41]: 5.5 µM·h
SMILES: Cl.[2H]C([2H])([2H])NC(=O)c1cnc(NC(=O)C2CC2)cc1Nc1cccc(-c2nnn(C)n2)c1OC

Source: ChEMBL document CHEMBL6092222 (J Med Chem, 2024)
